Entries after “also recorded” stand apart in the source; their conditions may differ.
How the values were obtained:
[1] = test system: IKKγ mono-ubiquitination; experiment: IKKγ mono-ubiquitination after irradiation, IKKγ immunoprecipitation, HEK293 cells; format: cell-based, human
Method: FIG. 11: (A) HEK293 cells were pre-incubated with DMSO, MW01 or ATM inhibitor KU55933 and irradiated. Lysates were subjected to SDS-PAGE/WB. The specific IKKγ S85 band (lower band) was identified by induction following irradiation and by sensitivity to ATMi and λ-phosphatase (λ-PP) treatment. The asterisk indicates a non-specific band that was neither inducible nor ATMi sensitive. (B) Experiment was done as shown in (A) using MEF cells. (C) HEK293 cells were pre-treated with DMSO or MW01, irradiated and lysed. Lysates were used to immunoprecipitate IKKγ using an IKKγ antibody.
Following cell lysis the protein concentration of samples was determined. For input controls, 40 μg lysate were mixed with 6×SDS-buffer and denatured by heating to 95° C. for 4 min. Approximately 1500 μg protein lysate was used for pulldown and samples volumes were equalled with lysis buffer. Lysates were precleared with 30 μl sepharose A or sepharose G beads (depending on the antibody type used for pulldown) for 30 min, and centrifuged for 5 min at 1,500×g. The supernatant was transferred to a new reaction tube. Primary antibody (2-2.5 μg) was added to the cleared lysate for immunoprecipitation overnight while rotating at 4° C. The next day 30 μl sepharose beads per sample were used for immobilisation of antibodies. […]

[2] = biological target: nuclear IKKγ-PIASy-PARP1-ATM signalosome (Homo sapiens, UniProt P09874+Q13315+Q8N2W9+Q9Y6K9); experiment: Nuclear PARP1-signalosome formation, IKKγ co-immunoprecipitation, HEK293 cells; format: cell-based; design: endogenous in cells; host or cells: HEK293
Method: FIG. 8: (A) HepG2 cells were pre-treated with DMSO or MW01 and irradiated. Nuclear cell extracts (NE) were used for PIASy immunoprecipitation (IP). Western blot membranes were incubated with indicated antibodies. (B) Experiment as shown in (A), but with IKKγ IP. (C) Experiment as shown in (B), but done in HEK293 cells. (D) Experiment done as shown in […], but repeated in MEF cells.
Following cell lysis the protein concentration of samples was determined. For input controls, 40 μg lysate were mixed with 6×SDS-buffer and denatured by heating to 95° C. for 4 min. Approximately 1500 μg protein lysate was used for pulldown and samples volumes were equalled with lysis buffer. Lysates were precleared with 30 μl sepharose A or sepharose G beads (depending on the antibody type used for pulldown) for 30 min, and centrifuged for 5 min at 1,500×g. The supernatant was transferred to a new reaction tube. Primary antibody (2-2.5 μg) was added to the cleared lysate for immunoprecipitation overnight while rotating at 4° C. The next day 30 μl sepharose beads per sample were used for immobilisation of antibodies. Following 4 washes with IP wash buffer precipitated proteins were eluted by mixing with 3×SDS-buffer and heating to 95° C. for 4 min.

[3] = test system: genotoxic stress-induced NF-κB signaling; experiment: Etoposide-induced p65 nuclear translocation, immunofluorescence / high content screening in U2OS cells; format: cell-based, human
Method: FIG. 2: U2OS cells were pre-treated and incubated with DMSO or MW01. DNA damage was induced by administration of etoposide. After 2 h cells were fixed, nuclei were stained with DAPI. p65 and phospho-H2AX, which is indicative for DNA DSB, were stained by immunofluorescence. Images were taken at a confocal Zeiss 710 LSM with a 40× oil objective.
FIG. 3: (A) U2OS cells were pre-treated with increasing concentrations of MW01 in duplicates in a 384 well plate. Then, cells were treated with etoposide, fixed and subjected to IF of p65. Spatial measurement of p65 cytosolic and nuclear localisation was used for calculation of p65 translocation rates. (B) U2OS cells were pre-treated with DMSO, MW01 and irradiated with γ-IR. After 90 min cells were lysed and subjected to SDS-PAGE/WB and EMSA. (C) Cells were pre-treated with different concentrations of MW01 as indicated, treated with γ-IR (C) or etoposide (D) and subjected to WB or EMSA, respectively. LDH in (C) represents the loading control.
Genotoxic stress was applied by ionizing irradiation of cells with a Cs137 source (0629 Irradiator, STS Braunschweig), or by inhibition of the topoisomerase II enzyme by administration of etoposide at concentrations between 20-50 μM for 2 h.
For immunofluorescence staining 0.95×10^5 cells were seeded in 6 well plates onto autoclaved cover slips. Cellular confluency dictated to beginning of the experiment (2-3 days from seeding). After conduction of experiments cells were washed with PBS and fixed with 4% PFA/double-distilled H2O (ddH2O) for 10 min at RT. Following two additional washing steps cells were incubated with a solution containing 0.12% glycine/0.2% saponin in PBS for 10 min and then blocked with a solution containing 10% FCS/0.2% saponin in PBS for 1 h. Primary antibody incubation was performed overnight at 4° C. (1:500 diluted in 0.2% saponin in PBS). The next day, cover slips were washed five times with a solution containing 0.2% saponin in PBS. Fluorophor-coupled secondary antibodies (1:1000 diluted in 0.2% saponin in PBS) were incubated for 1 h (hour) at RT. Nuclei were stained using 0.2 mg/ml DAPI in PBS for […] or by directly mounting with DAPI/Mowiol. Finally, the cover slips were washed five times with 0.2% saponin in PBS and two times with ddH2O. Confocal microscopy was performed using a Zeiss 710 LSM with a 40× or a 63× oil objective.
In order to identify specific inhibitors of the DNA damage-induced NF-κB pathway, a differential screening assay was designed. The primary screening for inhibitors of genotoxic stress-induced NF-κB signaling utilised a library of compounds from ChemBioNet and donated compounds of academic chemists. DNA damage was applied by application of etoposide. All compounds which inhibited p65 nuclear translocation were taken for subsequent counter screening. For the counter screening administration of TNFα was used to induce canonical NF-κB signaling. All substances inhibiting TNFα-induced canonical NF-κB activation were discarded from the list of potential DNA damage-pathway specific substances.

[4] = biological target: PARP1 (Homo sapiens, UniProt P09874); experiment: PARP1 enzymatic activity, PAR chain formation, U2OS cells; format: cell-based; design: Experiment performed as described for (A), but using U2OS cells; endogenous in cells; host or cells: U2OS; settings: γ-irradiation
Method: FIG. 10: (A) MEF cells were pre-treated with the indicated substances, irradiated and cell lysates were used for poly(ADP)-ribose probing using a specific antibody. (B) Experiment performed as described for (A), but using U2OS cells.
FIG. 14: (A) U2OS cells were pre-treated with different concentrations of olaparib prior to co-treatment with etoposide. Whole cell lysis was performed after 90 min and cleared lysates were used for WB with indicated antibodies. (B) U2OS cells were pre-treated with DMSO, olaparib or the ATM inhibitor Ku55933 and co-treated with etoposide. Cells were harvested after 45 min and subjected to SDS-PAGE/WB. Membranes were stained with the indicated antibodies. The experiment of (B) was performed simultaneously to the experiments of (A) and (E) to control functionality of olaparib in inhibiting PAR chain formation. (C) Densitometrical analyses of (A) and two further independent experiments done as shown in (A). (D) U2OS cells were pre-treated with the substances as indicated prior to irradiation. After 90 min mRNA was isolated, transcribed into cDNA and was used for expression analyses of the indicated genes using quantitative real-time PCR (qRT-PCR). (E) HepG2 cells were pre-treated with the PARP inhibitors olaparib, 3-AB and EB-47 prior to γ-irradiation. Cells were harvested after 15 and 90 min and subjected to SDS-PAGE/WB. […]

Sequence of nuclear IKKγ-PIASy-PARP1-ATM signalosome (Q9Y6K9 whole entry): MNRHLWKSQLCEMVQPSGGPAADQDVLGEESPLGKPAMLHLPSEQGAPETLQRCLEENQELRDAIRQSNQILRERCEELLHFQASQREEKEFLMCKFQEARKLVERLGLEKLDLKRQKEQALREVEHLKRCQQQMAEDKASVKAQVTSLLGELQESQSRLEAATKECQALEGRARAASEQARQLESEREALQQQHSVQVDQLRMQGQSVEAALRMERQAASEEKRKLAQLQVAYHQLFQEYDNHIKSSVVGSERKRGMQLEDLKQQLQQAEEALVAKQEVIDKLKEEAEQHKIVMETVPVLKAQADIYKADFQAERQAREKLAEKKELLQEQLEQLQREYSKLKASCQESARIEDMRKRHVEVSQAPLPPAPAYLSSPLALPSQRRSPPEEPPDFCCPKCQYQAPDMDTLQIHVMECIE
Sequence of nuclear IKKγ-PIASy-PARP1-ATM signalosome (Q8N2W9 2-510 limits assumed): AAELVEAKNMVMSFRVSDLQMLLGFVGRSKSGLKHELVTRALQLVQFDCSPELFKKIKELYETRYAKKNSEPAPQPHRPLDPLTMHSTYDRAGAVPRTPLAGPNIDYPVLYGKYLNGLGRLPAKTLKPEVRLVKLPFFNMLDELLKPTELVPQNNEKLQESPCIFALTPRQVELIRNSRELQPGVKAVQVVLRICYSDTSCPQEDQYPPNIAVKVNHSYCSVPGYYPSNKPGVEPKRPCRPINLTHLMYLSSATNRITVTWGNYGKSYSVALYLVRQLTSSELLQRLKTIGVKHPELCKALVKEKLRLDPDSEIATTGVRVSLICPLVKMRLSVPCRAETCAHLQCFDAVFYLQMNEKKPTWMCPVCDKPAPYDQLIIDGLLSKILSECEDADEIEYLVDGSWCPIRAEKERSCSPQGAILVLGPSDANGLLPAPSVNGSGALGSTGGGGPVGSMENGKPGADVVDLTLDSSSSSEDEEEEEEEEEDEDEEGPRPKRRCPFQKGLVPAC
Sequence of nuclear IKKγ-PIASy-PARP1-ATM signalosome (P09874 2-1014 limits assumed): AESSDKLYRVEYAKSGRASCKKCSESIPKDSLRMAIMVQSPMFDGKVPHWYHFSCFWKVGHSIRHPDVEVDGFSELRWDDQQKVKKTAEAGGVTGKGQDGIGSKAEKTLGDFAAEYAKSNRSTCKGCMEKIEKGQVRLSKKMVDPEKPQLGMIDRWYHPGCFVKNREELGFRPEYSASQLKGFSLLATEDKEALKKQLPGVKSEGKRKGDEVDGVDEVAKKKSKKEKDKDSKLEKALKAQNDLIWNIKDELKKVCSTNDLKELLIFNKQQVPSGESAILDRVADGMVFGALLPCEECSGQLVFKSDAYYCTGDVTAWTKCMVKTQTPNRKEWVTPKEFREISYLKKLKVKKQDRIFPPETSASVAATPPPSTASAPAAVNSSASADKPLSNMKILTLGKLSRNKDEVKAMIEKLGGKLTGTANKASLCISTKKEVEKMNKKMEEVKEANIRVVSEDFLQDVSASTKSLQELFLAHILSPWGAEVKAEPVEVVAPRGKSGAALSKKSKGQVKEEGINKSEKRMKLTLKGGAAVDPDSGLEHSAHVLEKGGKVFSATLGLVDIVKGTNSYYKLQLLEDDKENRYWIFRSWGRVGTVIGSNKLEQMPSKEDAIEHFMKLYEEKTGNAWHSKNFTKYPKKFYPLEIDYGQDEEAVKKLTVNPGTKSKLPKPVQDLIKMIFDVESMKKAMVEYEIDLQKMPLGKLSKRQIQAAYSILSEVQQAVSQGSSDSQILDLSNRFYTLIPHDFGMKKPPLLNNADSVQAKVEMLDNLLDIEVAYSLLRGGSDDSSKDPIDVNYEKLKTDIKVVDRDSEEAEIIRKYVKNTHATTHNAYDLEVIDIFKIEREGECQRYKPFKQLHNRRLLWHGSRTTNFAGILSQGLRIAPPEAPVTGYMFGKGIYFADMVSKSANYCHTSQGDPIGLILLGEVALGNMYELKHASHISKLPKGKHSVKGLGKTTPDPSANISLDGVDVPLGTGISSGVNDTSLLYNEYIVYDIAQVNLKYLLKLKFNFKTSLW
Sequence of nuclear IKKγ-PIASy-PARP1-ATM signalosome (Q13315 2-3056 limits assumed): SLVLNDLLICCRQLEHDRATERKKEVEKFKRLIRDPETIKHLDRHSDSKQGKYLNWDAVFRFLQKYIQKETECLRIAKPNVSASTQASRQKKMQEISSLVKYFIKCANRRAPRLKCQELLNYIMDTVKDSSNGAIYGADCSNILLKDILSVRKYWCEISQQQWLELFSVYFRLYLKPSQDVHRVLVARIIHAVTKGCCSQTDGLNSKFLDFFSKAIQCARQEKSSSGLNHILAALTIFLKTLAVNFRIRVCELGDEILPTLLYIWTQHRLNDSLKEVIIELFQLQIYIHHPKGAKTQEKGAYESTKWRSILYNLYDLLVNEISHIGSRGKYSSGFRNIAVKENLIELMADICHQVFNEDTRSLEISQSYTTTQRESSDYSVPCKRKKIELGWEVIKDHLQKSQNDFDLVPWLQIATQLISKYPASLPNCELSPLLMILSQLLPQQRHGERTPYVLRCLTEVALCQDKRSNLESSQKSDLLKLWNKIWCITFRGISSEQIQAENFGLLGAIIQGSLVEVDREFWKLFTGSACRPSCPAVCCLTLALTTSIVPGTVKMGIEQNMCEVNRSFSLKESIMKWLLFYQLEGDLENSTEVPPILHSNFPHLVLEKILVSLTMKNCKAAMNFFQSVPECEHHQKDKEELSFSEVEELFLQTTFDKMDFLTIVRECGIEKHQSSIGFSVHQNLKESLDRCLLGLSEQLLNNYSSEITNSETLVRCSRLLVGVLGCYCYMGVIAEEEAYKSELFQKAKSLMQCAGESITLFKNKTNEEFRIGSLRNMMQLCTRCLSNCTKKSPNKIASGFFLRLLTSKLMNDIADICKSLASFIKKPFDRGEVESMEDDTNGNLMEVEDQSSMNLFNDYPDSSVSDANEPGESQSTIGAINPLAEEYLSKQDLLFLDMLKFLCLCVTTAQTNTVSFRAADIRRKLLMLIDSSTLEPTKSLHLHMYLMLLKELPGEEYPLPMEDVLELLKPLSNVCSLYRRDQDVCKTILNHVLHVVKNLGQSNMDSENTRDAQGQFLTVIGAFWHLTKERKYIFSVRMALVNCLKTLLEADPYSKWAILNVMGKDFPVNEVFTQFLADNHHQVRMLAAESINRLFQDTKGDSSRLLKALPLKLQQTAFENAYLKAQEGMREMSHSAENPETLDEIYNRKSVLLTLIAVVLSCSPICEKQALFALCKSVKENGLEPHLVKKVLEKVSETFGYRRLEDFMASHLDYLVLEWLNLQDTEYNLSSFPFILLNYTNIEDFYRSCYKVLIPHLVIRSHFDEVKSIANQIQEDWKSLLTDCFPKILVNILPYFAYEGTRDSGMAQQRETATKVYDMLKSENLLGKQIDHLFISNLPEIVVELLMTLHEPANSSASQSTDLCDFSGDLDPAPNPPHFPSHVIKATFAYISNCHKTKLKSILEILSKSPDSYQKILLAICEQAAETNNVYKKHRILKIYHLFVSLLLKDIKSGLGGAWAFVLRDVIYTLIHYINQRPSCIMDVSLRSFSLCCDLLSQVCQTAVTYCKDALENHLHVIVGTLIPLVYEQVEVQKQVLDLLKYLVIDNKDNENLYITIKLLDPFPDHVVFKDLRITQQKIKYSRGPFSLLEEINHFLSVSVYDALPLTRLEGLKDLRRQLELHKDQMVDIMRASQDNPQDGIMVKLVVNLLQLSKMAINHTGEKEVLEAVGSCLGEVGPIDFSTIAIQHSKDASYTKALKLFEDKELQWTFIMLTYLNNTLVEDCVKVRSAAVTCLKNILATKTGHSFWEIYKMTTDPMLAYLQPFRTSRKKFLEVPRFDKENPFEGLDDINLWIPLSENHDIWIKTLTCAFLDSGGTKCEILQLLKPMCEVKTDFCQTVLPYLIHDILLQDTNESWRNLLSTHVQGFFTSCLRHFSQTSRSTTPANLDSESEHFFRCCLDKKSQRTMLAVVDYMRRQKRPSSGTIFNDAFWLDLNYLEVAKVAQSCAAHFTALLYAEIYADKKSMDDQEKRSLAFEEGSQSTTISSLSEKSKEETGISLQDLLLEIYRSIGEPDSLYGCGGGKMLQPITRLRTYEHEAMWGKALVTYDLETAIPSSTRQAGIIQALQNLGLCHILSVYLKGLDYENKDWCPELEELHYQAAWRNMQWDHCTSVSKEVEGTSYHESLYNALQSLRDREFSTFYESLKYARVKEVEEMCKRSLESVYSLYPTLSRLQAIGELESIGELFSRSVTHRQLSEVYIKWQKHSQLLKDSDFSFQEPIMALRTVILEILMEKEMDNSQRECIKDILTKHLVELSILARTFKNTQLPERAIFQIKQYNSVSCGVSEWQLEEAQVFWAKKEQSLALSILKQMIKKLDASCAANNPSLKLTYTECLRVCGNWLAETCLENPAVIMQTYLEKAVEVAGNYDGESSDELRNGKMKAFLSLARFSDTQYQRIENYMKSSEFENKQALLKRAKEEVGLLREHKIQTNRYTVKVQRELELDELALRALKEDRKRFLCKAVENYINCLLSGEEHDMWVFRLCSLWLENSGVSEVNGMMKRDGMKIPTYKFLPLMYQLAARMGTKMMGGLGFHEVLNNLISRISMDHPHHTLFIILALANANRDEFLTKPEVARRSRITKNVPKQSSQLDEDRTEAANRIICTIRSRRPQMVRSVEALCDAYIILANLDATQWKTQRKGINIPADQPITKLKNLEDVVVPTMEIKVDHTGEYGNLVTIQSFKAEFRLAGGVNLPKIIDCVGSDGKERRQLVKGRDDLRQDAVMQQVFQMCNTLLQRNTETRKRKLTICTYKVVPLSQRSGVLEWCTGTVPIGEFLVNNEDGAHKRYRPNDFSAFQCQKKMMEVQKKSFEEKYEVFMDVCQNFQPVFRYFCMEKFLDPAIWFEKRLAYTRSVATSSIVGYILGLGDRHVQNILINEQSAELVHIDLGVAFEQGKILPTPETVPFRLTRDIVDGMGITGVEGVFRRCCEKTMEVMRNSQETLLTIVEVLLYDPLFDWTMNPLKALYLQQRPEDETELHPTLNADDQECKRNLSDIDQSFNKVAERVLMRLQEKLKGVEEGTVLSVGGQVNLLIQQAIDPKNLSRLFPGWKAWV

For COc1ccc2c(c1OC)c(=O)n1c3ccc(O)cc3c3ccnc2c31 [MW01, 12-hydroxy-6,7-dimethoxy-8H-benzo[c]indolo[3,2,1-ij][1,5]naphthyridin-8-one], the IKKγ mono-ubiquitination [1] was “abolishment”, the “Co-IP of PARP-1 with IKKγ” value ([2]; HEK293, data not shown) was “abrogated Co-IP of PARP-1 with IKKγ” and the “IKKγ-PIASy-interaction (PIASy co-immunoprecipitation with IKKγ)” value ([2]; HEK293, γ-irradiation) was “the interaction was abolished”. The IC50 ([3]; Homo sapiens, U2OS, etoposide-induced p65 nuclear translocation, high content screening) was 460 nM, the “calculated Hill coefficient” value ([3]; IC50 determination assay) was −0.9 and the “percentage in activity change (as recorded in IC50 determination assay)” value ([3]; etoposide) was 120%. For the same molecule, the “concentration sufficient for maximal inhibition of p65 nuclear translocation” value ([3]; etoposide stimulation, U2OS) was 5 µM, the “inhibition of etoposide-induced p65 nuclear translocation / NF-κB activation” value ([3]; etoposide, U2OS) was “inhibited NF-κB activation in response to etoposide stimulation; also recorded: inhibited the nuclear translocation of p65 upon etoposide stimulation in a concentration dependent manner” and the “PAR chain formation / PARP1 enzymatic activity” value [4] was “did not interfere with activation of PARP1 enzymatic activity”.
